Results taken from EP0003794B1, “Testosterone esters, process for their preparation and pharmaceutical compositions containing them” (priority 1978, dated 1979).

Columns and labels:
[1] = Recent Progress in Hormone Research, Volume XIII, 389-396, Fig. 1 and Fig. 4; cited from earlier work
[2] = Testosterone plasma concentration (radioimmunoassay) and bioavailability after oral application in peanut oil, female dogs; i.m. testosterone as the reference; format: in vivo, Hunden
Protocol: Es wurde der zeitliche Verlauf der Testosteronkonzentration im Plasma von weiblichen Hunden von ca. 10 kg Gewicht nach oraler Applikation von 50 mg Testosteron-0-hexadecanoylglykolat (= 25 mg Testosteron) und von 40 mg Testosteronundecylat (= 25 mg Testosteron) im Vergleich zur […] Applikation von 25 mg Testosteron gemessen. Die Testosteronbestimmung im Plasma erfolgte mittels Radioimmunoassay. Zur Applikation wurden die geprüften Substanzen in Erdnußöl gelöst.
Die Bioverfügbarkeit wurde berechnet als Quotient der Flächen unter der Testosteronplasmaspiegelkurve (0-8 Stunden) nach oraler Applikation der geprüften Substanzen und der Fläche unter der Testosteronplasinaspiegelkurve nach intramuskulärer Applikation von Testosteron.

[3] = format: in vivo, Paviane; details: 50 mg i.m. in 1 ml Rizinusöl/Benzylbenzoat (6:4), female baboons
Protocol: Die gleichmäßige, anhaltende Bereitstellung von Testosteron aus den erfindungsgemäßen Estern kann durch Bestimmung der Testosteronkonzentration im Plasma mittels Radioimmunoassay nachgewiesen werden.
Zu diesem Zweck erhielten zwei weibliche Paviane je 50 mg Testosteron-O-hexadecanoylglykolat in 1 ml Rizinusöl/Benzylbenzoat (6:4) intramuskular. Die Testosteron-Plasmaspiegel lagen zwischen dem 2. und 40. Tag im Bereich zwischen 15 und 25 ng/ml Plasma.

Structure (SMILES) | Wirkung (Verlauf) im Vergleich zu Testosteronönanthat [1] | further results
CCCCCCCCCC(=O)CC(=O)O[C@H]1CC[C@H]2[C@@H]3CCC4=CC(=O)CC[C@]4(C)[C@H]3CC[C@]12C [Testosteroncaprinoylacetat] | über 6 Wochen etwas gleichmäßigere aber insgesamt geringere Wirkung | –
CCCCCCCCCCC(=O)O[C@H]1CC[C@H]2[C@@H]3CCC4=CC(=O)CC[C@]4(C)[C@H]3CC[C@]12C [Testosteronundecylat] | etwas gleichmäßigere Wirkung als Testosteronönanthat | –
C[C@]12CC[C@H]3[C@@H](CCC4=CC(=O)CC[C@@]43C)[C@@H]1CC[C@@H]2O [Testosteron (T), Testosteron] | – | AUC at 8 h ([2]; dog, plasma, oral, in Erdnußöl, dose ≙ 25 mg Testosteron, female dogs ca. 10 kg, testosterone by radioimmunoassay, read-out: Fläche unter Plasma-spiegel (0 – 8 h)): 0.0106 µg·h/mL; Bioverfügbarkeit bezogen auf i.m. Applikation ([2]; in vivo): 1,29%
CCCCCCC(=O)O[C@H]1CC[C@H]2[C@@H]3CCC4=CC(=O)CC[C@]4(C)[C@H]3CC[C@]12C [Testosteronönanthat] | besonders hohe initiale Wirkung zeigt, die relativ rasch abfällt | –
CCCCCCCCCCCCCCCC(=O)OCC(=O)O[C@H]1CC[C@H]2[C@@H]3CCC4=CC(=O)CC[C@]4(C)[C@H]3CC[C@]12C [Testosteron-O-hexadecanoylglykolat] | – | Freisetzung des Testosterons aus dem Depot [3]: fast vollständig freigesetzt
